Source: publication PMC12811658, “Design, Synthesis, and Structural Evolution of Pseudo‐Natural Product IDO1 Inhibitors and Degraders” (Angewandte Chemie (International Ed. in English), 2025)
“Also recorded” adds a separate entry of the source.

Legend:
[1] = tested on: Kyn levels in BxPC3 cells (kynurenine generated by IDO1); assay: Cellular Kyn assay (automated Kyn screening assay); type: cell-based; conditions: for IC50: Homo sapiens, BXPC-3, 48 h, IFN-γ, L-Trp and compounds 48 h, mean ± SD, read-out: IC50 (Kyn assay), reduction of kynurenine levels
[2] = biological target: IDO1 protein levels in BxPC3 cells (Homo sapiens, UniProt P14902); assay: IDO1 immunoblotting (degradation); type: cell-based; parameters: endogenous in cells; host or cells: BxPC3 (DSMZ), IFN-γ stimulated; conditions: for Max. degradation (%): 24 h incubation, mean ± SD
[3] = biological target: T1, recombinant human IDO1 (Homo sapiens, UniProt P14902); assay: IDO1 enzymatic assay in vitro; type: biochemical; conditions: pre-incubation 37 °C 45 min; for inhibition at 14 µM: mean ± SD; for IDO1 activity IC50 [µM] (in vitro assay) / IC50: determined if inhibition at 14 µM higher than 50%
T1 construct: The GST-tag of IDO1 was removed to obtain untagged full-length IDO1l using PreScission protease; GST (N, cleaved yes); made in house; own inference
T1 sequence (P14902 whole entry): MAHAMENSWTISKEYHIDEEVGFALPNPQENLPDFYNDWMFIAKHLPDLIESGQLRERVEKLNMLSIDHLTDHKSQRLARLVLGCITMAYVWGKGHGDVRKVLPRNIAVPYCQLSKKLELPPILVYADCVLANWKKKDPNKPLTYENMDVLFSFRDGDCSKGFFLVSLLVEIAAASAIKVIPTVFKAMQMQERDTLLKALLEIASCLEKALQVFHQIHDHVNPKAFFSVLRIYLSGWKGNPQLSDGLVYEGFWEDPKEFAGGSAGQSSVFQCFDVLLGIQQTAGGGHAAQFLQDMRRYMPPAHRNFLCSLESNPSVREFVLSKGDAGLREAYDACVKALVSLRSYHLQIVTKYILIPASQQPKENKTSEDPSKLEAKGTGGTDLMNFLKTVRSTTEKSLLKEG

Sequence of IDO1 protein levels in BxPC3 cells (P14902 whole entry): as above

| SMILES | IC50 [1] | Max. degradation (%) ([2]; 10 nM) | Max. degradation (%) ([2]; 100 nM) | inhibition at 14 µM [3] | IDO1 activity IC50 [µM] (in vitro assay) [3] | also measured |
| --- | --- | --- | --- | --- | --- | --- |
| COc1cc(C(C)(C)C)ccc1S(=O)(=O)N1C[C@H]2C[C@H]3C[C@H](C3(C)C)[C@@]2(COC(=O)Nc2ccc(I)cc2)C1 [compound 82, ((3aS,4R,6R,7aS)-2-((4-(tert-butyl)-2-methoxyphenyl)sulfonyl)-5,5-dimethyloctahydro-3aH-4,6-methanoisoindol-3a-yl)methyl (4-iodophenyl)carbamate] | 46 ± 15 nM | 14 ± 15 (5) % | 59 ± 16 (5) % | < 25% | – (Inactive: >75% Kyn level observed up to a concentration of 14 µM and no IC50 value obtained) | – |
| CC(C)(C)c1ccc(S(=O)(=O)N2C[C@H]3C[C@H]4C[C@H](C4(C)C)[C@@]3(COC(=O)Nc3ccc(I)cc3)C2)c(Br)c1 [compound 83, ((3aS,4R,6R,7aS)-2-((2-bromo-4-(tert-butyl)phenyl)sulfonyl)-5,5-dimethyloctahydro-3aH-4,6-methanoisoindol-3a-yl)methyl (4-iodophenyl)carbamate] | 35 ± 6 nM | 24 ± 15 (3) % | 56 ± 4 (3) % | < 25% | – (Inactive: >75% Kyn level observed up to a concentration of 14 µM and no IC50 value obtained) | – |
| COC(=O)C(C)(C)c1ccc(S(=O)(=O)N2C[C@H]3C[C@H]4C[C@H](C4(C)C)[C@@]3(COC(=O)Nc3ccc(I)cc3)C2)c(OC)c1 [compound 93, Methyl 2-(4-(((3aS,4R,6R,7aS)-3a-((((4-iodophenyl)carbamoyl)oxy)methyl)-5,5-dimethyloctahydro-2H-4,6-methanoisoindol-2-yl)sulfonyl)-3-methoxyphenyl)-2-methylpropanoate] | 73 ± 41 nM | – | – | < 25% | – (Inactive: >75% Kyn level observed up to a concentration of 14 µM and no IC50 value obtained) | – |
| CC(C)(C(=O)O)c1ccc(S(=O)(=O)N2C[C@H]3C[C@H]4C[C@H](C4(C)C)[C@@]3(COC(=O)Nc3ccc(I)cc3)C2)cc1 [92 (iDeg-5), 2-(4-(((3aS,4R,6R,7aS)-3a-((((4-iodophenyl)carbamoyl)oxy)methyl)-5,5-dimethyloctahydro-2H-4,6-methanoisoindol-2-yl)sulfonyl)phenyl)-2-methylpropanoic acid] | 30 ± 3 nM | 23 ± 22 (5) % | 46 ± 21 (5) % | 66 ± 8% | – | fold increase in potency compared to iDeg-2 in Kyn assay [1]: 4 fold; Dmax at 0.1 µM ([2]; BXPC-3, @100 nM, BxPC3 cells): 36 to 54%; IC50 [3]: 0.82 ± 0.14 µM |
| CC(C)(C)c1ccc(S(=O)(=O)N2C[C@H]3C[C@H]4C[C@H](C4(C)C)[C@@]3(COC(=O)Nc3ccc(I)cc3)C2)c(I)c1 [compound 84, ((3aS,4R,6R,7aS)-2-((4-(tert-butyl)-2-iodophenyl)sulfonyl)-5,5-dimethyloctahydro-3aH-4,6-methanoisoindol-3a-yl)methyl (4-iodophenyl)carbamate] | 42 ± 15 nM | inactive | 55 ± 5 (3) % | 16 ± 4% | – (Inactive: >75% Kyn level observed up to a concentration of 14 µM and no IC50 value obtained) | – |
| C#Cc1ccc(NC(=O)OC[C@]23CN(S(=O)(=O)c4ccc(C(C)(C)C)cc4C4CC4)C[C@H]2C[C@H]2C[C@@H]3C2(C)C)cc1 [compound 100, ((3aS,4R,6R,7aS)-2-((4-(tert-butyl)-2-cyclopropylphenyl)sulfonyl)-5,5-dimethyloctahydro-3aH-4,6-methanoisoindol-3a-yl)methyl (4-ethynylphenyl)carbamate] | 10 ± 4 nM | 61 ± 2 (3) % | 71 ± 11 (3) % | 39 ± 7% | – | IC50 [3]: > 14 µM |
| Cc1cc(C(C)(C)C(=O)O)ccc1S(=O)(=O)N1C[C@H]2C[C@H]3C[C@H](C3(C)C)[C@@]2(COC(=O)Nc2ccc(I)cc2)C1 [compound 97, 2-(4-(((3aS,4R,6R,7aS)-3a-((((4-iodophenyl)carbamoyl)oxy)methyl)-5,5-dimethyloctahydro-2H-4,6-methanoisoindol-2-yl)sulfonyl)-3-methylphenyl)-2-methylpropanoic acid] | 5 ± 1 nM | 11 ± 24 (3) % | 18 ± 19 (3) % | 65 ± 4% | – | IC50 [3]: 0.11 ± 0.02 µM |
| COC(=O)C(C)(C)c1ccc(S(=O)(=O)N2C[C@H]3C[C@H]4C[C@H](C4(C)C)[C@@]3(COC(=O)Nc3ccc(I)cc3)C2)c(Cl)c1 [compound 94, Methyl 2-(3-chloro-4-(((3aS,4R,6R,7aS)-3a-((((4-iodophenyl)carbamoyl)oxy)methyl)-5,5-dimethyloctahydro-2H-4,6-methanoisoindol-2-yl)sulfonyl)phenyl)-2-methylpropanoate] | 43 ± 24 nM | – | – | < 25% | – (Inactive: >75% Kyn level observed up to a concentration of 14 µM and no IC50 value obtained) | – |
| CC1(C)[C@H]2C[C@@H]3CN(S(=O)(=O)c4ccc([Si](C)(C)C)cc4)C[C@]3(COC(=O)Nc3ccc(I)cc3)[C@@H]1C2 [compound 77, ((3aS,4R,6R,7aS)-5,5-dimethyl-2-((4-(trimethylsilyl)phenyl)sulfonyl)octahydro-3aH-4,6-methanoisoindol-3a-yl)methyl (4-iodophenyl)carbamate] | 260 ± 90 nM | – | – | – | – | – |
| Cc1ccc(OC(=O)OC[C@]23CN(S(=O)(=O)c4ccc(C(C)(C)C)cc4)C[C@H]2C[C@H]2C[C@@H]3C2(C)C)cc1 [compound 13, ((3aS,4R,6R,7aS)-2-((4-(tert-butyl)phenyl)sulfonyl)-5,5-dimethyloctahydro-3aH-4,6-methanoisoindol-3a-yl)methyl p-tolyl carbonate] | – | – | – | – | – | activity in cellular Kyn assay (in words) [1]: did not improve activity; also recorded: inactive |
| CC(C)[C@]12CC(OC(=O)Nc3ccc(I)cc3)[C@]3(CCN(S(=O)(=O)c4ccc(C(C)(C)C)cc4)C3)[C@H]1C2 (stereo partly drawn) [compound 24, (1S,2R,5S)-1'-((4-(tert-butyl)phenyl)sulfonyl)-5-isopropylspiro[bicyclo[3.1.0]hexane-2,3'-pyrrolidin]-3-yl (4-iodophenyl)carbamate] | – | – | – | – | – | activity in cellular Kyn assay (in words) [1]: inactive |
| CN(C)C(=O)C(C)(C)c1ccc(S(=O)(=O)N2C[C@H]3C[C@H]4C[C@H](C4(C)C)[C@@]3(COC(=O)Nc3ccc(I)cc3)C2)cc1 [compound 87, ((3aS,4R,6R,7aS)-2-((4-(1-(dimethylamino)-2-methyl-1-oxopropan-2-yl)phenyl)sulfonyl)-5,5-dimethyloctahydro-3aH-4,6-methanoisoindol-3a-yl)methyl (4-iodophenyl)carbamate] | 850 ± 270 nM | – | – | – | – | – |
| CC(C)(C)c1ccc(S(=O)(=O)N2C[C@H]3C[C@H]4C[C@H](C4(C)C)[C@@]3(COC(=O)Nc3ccc(O)cc3)C2)cc1 [compound 42, ((3aS,4R,6R,7aS)-2-((4-(tert-butyl)phenyl)sulfonyl)-5,5-dimethyloctahydro-3aH-4,6-methanoisoindol-3a-yl)methyl (4-hydroxyphenyl)carbamate] | > 10000 nM | – | – | – | – | – |
| CC(C)(C(=O)N1CCOCC1)c1ccc(S(=O)(=O)N2C[C@H]3C[C@H]4C[C@H](C4(C)C)[C@@]3(COC(=O)Nc3ccc(I)cc3)C2)cc1 [compound 86, ((3aS,4R,6R,7aS)-5,5-dimethyl-2-((4-(2-methyl-1-morpholino-1-oxopropan-2-yl)phenyl)sulfonyl)octahydro-3aH-4,6-methanoisoindol-3a-yl)methyl (4-iodophenyl)carbamate] | 7300 ± 1400 nM | – | – | – | – | – |
